Test results taken from ChEMBL document CHEMBL4265968, “Efficient analoging around ethionamide to explore thioamides bioactivation pathways triggered by boosters in Mycobacterium tuberculosis” (Eur J Med Chem, 2018).
Values after ≈ are worked out from the molar mass of the structure shown.

Tests used:
[1] = tested on: Mycobacterium tuberculosis; test: Antimycobacterial activity against GFP expressing Mycobacterium tuberculosis H37Rv after 7 days by fluorescence assay; assay type: functional; details: 168 h
[2] = tested on: Mycobacterium tuberculosis; test: Antimycobacterial activity against GFP expressing Mycobacterium tuberculosis H37Rv after 7 days in presence of EthR inhibitor BDM41906 by fluorescence assay; assay type: functional; details: 168 h
[3] = tested on: Mycobacterium tuberculosis; test: Antimycobacterial activity against GFP expressing Mycobacterium tuberculosis H37Rv after 7 days in presence of EthR2 inhibitor SMARt-420 by fluorescence assay; assay type: functional; details: 168 h
[4] = tested on: Mycobacterium tuberculosis; test: Ratio of MIC50 for GFP expressing Mycobacterium tuberculosis H37Rv in absence of EthR inhibitor BDM41906 to MIC50 for GFP expressing Mycobacterium tuberculosis H37Rv in presence of EthR inhibitor BDM41906; assay type: functional
[5] = tested on: Mycobacterium tuberculosis; test: Ratio of MIC50 for GFP expressing Mycobacterium tuberculosis H37Rv in absence of EthR2 inhibitor SMARt-420 to MIC50 for GFP expressing Mycobacterium tuberculosis H37Rv in presence of EthR2 inhibitor SMARt-420; assay type: functional
[6] = Electrochemical behavior of the compound assessed as redox potential corrected toward normal hydrogen electrode at 10^-3 M by cyclic voltammetry; assay type: physicochemical; details: 1000 µM

| Structure (SMILES) | MIC50 [1] [µM] | MIC50 [2] [µM] | MIC50 [3] [µM] | Ratio [4] | Ratio [5] | Activity [6] [V] |
| --- | --- | --- | --- | --- | --- | --- |
| NC(=S)c1ccnc(CC(F)(F)F)c1 | > 30 | 10 | 1.5 | >3 | >20 | 1.55 |
| NC(=S)c1ccnc(Cc2ccccc2)c1 | 1.1 (≈ 0.251 µg/mL) | 0.1 | 0.1 | 11 | 11 | – |
| CCC(C)c1cc(C(N)=S)ccn1 (centres undefined) | 30 (≈ 5.83 µg/mL) | 0.2 | 0.2 | 150 | 150 | 1.48 |
| CCCCc1cc(C(N)=O)ccn1 | > 30 | > 30 | > 30 | – | – | – |
| NC(=S)c1ccnc(C2CC2)c1 | 6.6 (≈ 1.18 µg/mL) | 1 | 0.5 | 7 | 13 | 1.4 |
| NC(=S)c1ccnc(Cc2ccc(F)cc2)c1 | 1 (≈ 0.246 µg/mL) | 0.2 | 0.1 | 5 | 10 | – |
| CC(C)CCc1cc(C(N)=S)ccn1 | 6.6 (≈ 1.37 µg/mL) | 0.1 | 0.1 | 52 | 52 | 1.63 |
| CCOC(=O)CCc1cc(C(N)=S)ccn1 | > 30 | 3.8 | 1.3 | >8 | >23 | – |
| N#Cc1cccc(Cc2cc(C(N)=S)ccn2)c1 | 0.5 (≈ 0.127 µg/mL) | 0.1 | 0.1 | 5 | 5 | – |
| CCc1cc(/C(N)=[S+]/[O-])ccn1 | 10 (≈ 1.82 µg/mL) | 0.4 | 0.3 | 25 | 33 | – |
| NC(=S)c1ccnc(C2(C(F)(F)F)CC2)c1 | > 30 | 10 | 10 | >3 | >3 | 1.65 |
| NC(=S)c1ccnc(CC2CCCCC2)c1 | > 30 | 0.6 | 0.7 | >50 | >43 | 1.62 |
| COc1ccc(Cc2cc(C(N)=S)ccn2)cc1 | 2.4 (≈ 0.62 µg/mL) | 0.3 | 0.2 | 8 | 12 | – |
| CC(C)c1cc(C(N)=S)ccn1 | 21 (≈ 3.79 µg/mL) | 0.1 | 0.2 | 210 | 105 | 1.62 |
| CC(c1ccccc1)c1cc(C(N)=S)ccn1 (centres undefined) | > 30 | 0.6 | 0.7 | >50 | >43 | – |
| NC(=S)c1ccnc(Cc2cccc(F)c2)c1 | 0.6 (≈ 0.148 µg/mL) | 0.1 | 0.1 | 6 | 6 | – |
| CCCCc1cc(C(N)=S)ccn1 | 5.8 (≈ 1.13 µg/mL) | 0.6 | 0.4 | 10 | 15 | 1.39 |
| CC(C)Cc1cc(C(N)=S)ccn1 | > 30 | 9.1 | 3.8 | >3 | >8 | 1.57 |
| CCc1cc(C(N)=S)ccn1 [ETHIONAMIDE] | 19 (≈ 3.16 µg/mL) | 2 | 0.9 | 10 | 21 | 1.46 |
| CCCc1cc(C(N)=S)ccn1 [PROTIONAMIDE] | 13 (≈ 2.34 µg/mL) | 0.9 | 0.5 | 14 | 26 | 1.43 |
